This is an account of results in patent US20120230951A1 (priority 2011, published 2012).

Experiment [1] concerns GT-1a pRLuc H771b 75 S/I subgenomic replicon cell line. Description: HCV GT-1a replicon luciferase reporter assay. It is filed as cell-based. The following applies: Hepatitis C virus, GT1A, 72 h, read-out: GT-1a (IC50) (nM). In a few lines: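 Huh-7-derived subgenomic replicon cells (GT-1b Con1 2209-23, 5000/well; GT-1a H77 chimera with Con1 NS3 first 75 aa, 3000/well) in 5% FBS DMEM; compounds added 24 h post-plating, 3-fold dilutions, 1% DMSO. Renilla luciferase read after 72 h; EC50 is 50% signal reduction versus untreated, non-linear fit.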
Background: Replicon systems follow genome replication, usually without infectious particles.

Experiment [2] relates to HCV GT1b replicon (2209-23 cell line, GT-1b Con1 subgenomic replicon in Huh-7). The experiment in a line: HCV GT1b replicon luciferase reporter assay. It is filed as cell-based. The conditions noted are these: Hepatitis C virus, Huh-7, 2209-23 cells (GT-1b Con1), Renilla luciferase read 72 hours after addition of compounds, read-out: GT-1b (IC50). An excerpt: Determination of compounds HCV GT1b inhibitory replicon activity using the replicon luciferase reporter assay
The 2209-23 cell line was developed at Roche by stable transfection of the hepatoma cell line Huh-7 with a GT-1b Con1 subgenomic bicistronic replicon as previously described. Subgenomic replicon cell line was established in cured Huh7 cells, obtained from R. Bartenschlager (J. Virol. 2003 March; 77 (5):3007-19) The GT-1a H77 subgenomic replicon vector pRLuc H771b 75 S/I, was created by replacing the non structural region of the GT-1b Con1 subgenomic replicon by the one of the H77 strain, except for the first 75 amino acids of the NS3 protein that are from GT-1b Con1 strain. (J. Virol. 2001 77:5352-59) The GT-1a pRLuc H771b 75 S/I subgenomic replicon cell line was established in cured Huh7 cells, obtained from R. Bartenschlager. (J. Virol. 2003 March; 77 (5):3007-19)
All the subgenomic replicon cell lines were cultured in Dulbecco's Modified Eagle Medium (DMEM-Glutamax™-I; Invitrogen Cat #10569-010). The medium was supplemented with 10% Fetal Bovine Serum (Invitrogen Cat #10082-147), 1% penicillin/streptomycin (Mediatech Cat #30-002-CI) and 500 μg/ml of G418 (Mediatech Cat #30-234-CI). Cells were maintained at 37° C. in a humidified 5% CO2 atmosphere.
2209-23 cells were plated at a cell density of 5000 cells per well in 96 well plates (Becton Dickinson, Cat #35 3296). Cells were plated in 90 μl of Dulbecco's Modified Eagle Medium (DMEM-Glutamax™-I), (Invitrogen Cat #10569-010) medium was supplemented with 5% Fetal Bovine Serum (Invitrogen Cat #10082-147), 1% penicillin/streptomycin (Mediatech Cat #30-002-CI). The pRluc H771b 75 S/I cells were plated in 96-well plate at 3000 cells/well in DMEM-Glutamax™-I containing 5% FBS and 1% penicillin/streptomycin in 90 μl final volume. Cells were allowed to equilibrate for 24 hours at 37° C. and 5% CO2 at which time compounds were added. Compounds (or medium as a control) were added 24 hours post-plating in 3 fold dilutions at a final DMSO concentration of 1% in 10 ul volume. Renilla luciferase reporter signal was read 72 hours after addition of compounds using the Renilla Luciferase Assay System (Promega, cat #E2820). EC50 values were defined as the compound concentration at which a 50% reduction in the levels of renilla luciferase reporter was observed as compared to control samples in the absence of compound and was determined by non-linear fitting of compound dose-response data. The EC50 was approximated if maximum percentage inhibition was less than 90% and more than 70%.

`COC(=O)N[C@H]1CCc2cccc3c2N(C1=O)[C@H](c1nc2ccc(-c4ccc(-c5ccc6nc([C@@H]7CCCN7C(=O)[C@@H](NC(=O)OC)C(C)C)[nH]c6c5)cc4)cc2[nH]1)C3` [Compound I-5, {(2S,5S)-2-[6-(4-{2-[(S)-1-((S)-2-Methoxycarbonylamino-3-methyl-butyryl)-pyrrolidin-2-yl]-3H-benzoimidazol-5-yl}-phenyl)-1H-benzoimidazol-2-yl]-4-oxo-1,2,4,5,6,7-hexahydro-azepino[3,2,1-hi]indol-5-yl}-carbamic acid methyl ester]: the IC50 in experiment [1] was 49.8 nM; in experiment [2] it was 93 pM.

Consider `COC(=O)N[C@H]1CCc2cccc3c2N(C1=O)[C@H](c1nc2ccc(-c4ccc5nc(-c6ccc7nc([C@@H]8CCCN8C(=O)[C@@H](NC(=O)OC)C(C)C)[nH]c7c6)cnc5c4)cc2[nH]1)C3` [Compound I-6], for which the values for the IC50 in experiment [1] and in experiment [2] were 17.5 nM and 200 pM, respectively.

For the compound `COC(=O)N[C@H]1CCc2cccc3c2N(C1=O)[C@H](c1ncc(-c2ccc4nc(-c5ccc(-c6cnc([C@@H]7CCCN7C(=O)[C@@H](NC(=O)OC)C(C)C)[nH]6)cc5)cnc4c2)[nH]1)C3` [Compound I-59, ((2S,5S)-2-{5-[2-(4-{2-[(S)-1-((S)-2-Methoxycarbonylamino-3-methyl-butyryl)-pyrrolidin-2-yl]-3H-imidazol-4-yl}-phenyl)-quinoxalin-6-yl]-1H-imidazol-2-yl}-4-oxo-1,2,4,5,6,7-hexahydro-azepino[3,2,1-hi]indol-5-yl)-carbamic acid methyl ester], the IC50 was 0.709 nM in experiment [1] and 70 pM in experiment [2].

With `COC(=O)N[C@H]1CCc2cccc3c2N(C1=O)[C@H](c1nc2ccc(-c4ccc(-c5cnc([C@@H]6CCCN6C(=O)[C@@H](NC(=O)OC)C(C)C)[nH]5)cc4)cc2[nH]1)C3` [Compound I-10, {(2S,5S)-2-[6-(4-{2-[(S)-1-((S)-2-Methoxycarbonylamino-3-methyl-butyryl)-pyrrolidin-2-yl]-3H-imidazol-4-yl}-phenyl)-1H-benzoimidazol-2-yl]-4-oxo-1,2,4,5,6,7-hexahydro-azepino[3,2,1-hi]indol-5-yl}-carbamic acid methyl ester], the IC50 in experiment [1] is 43.3 nM; in experiment [2] it was 100 pM.

In the case of `COC(=O)N[C@@H](CCS(C)(=O)=O)C(=O)N1CCC[C@H]1c1ncc(-c2ccc(-c3ccc(-c4cnc([C@@H]5Cc6cccc7c6N5C(=O)[C@@H](NC(=O)OC)CC7)[nH]4)cc3)cc2)[nH]1` [Compound I-51, {(2S,5S)-2-[5-(4-{2-[(S)-1-((S)-4-Methanesulfonyl-2-methoxycarbonylamino-butyl)-pyrolidin-2-yl]-3H-imidazol-4-yl}-biphenyl-4-yl)-1H-imidazol-2-yl]-4-oxo-1,2,4,5,6,7-hexahydro-azepino[3,2,1-hi]indol-5-yl}-carbamic acid methyl ester], the IC50 in experiment [1] worked out at 16.6 nM; in experiment [2], 30 pM.

As for `COC(=O)NC(C(=O)N1CCCC1c1ncc(-c2ccc(-c3ccc(-c4cnc([C@@H]5Cc6cc(Br)cc7c6N5C(=O)[C@@H](NC(=O)OC)CC7)[nH]4)cc3)cc2)[nH]1)C(C)C` (stereo in doubt) [Compound I-25, {(2S,5S)-9-Bromo-2-[5-(4′-{2-[(R)-1-((R)-2-methoxycarbonylamino-3-methyl-butyryl)-pyrrolidin-2-yl]-3H-imidazol-4-yl}-biphenyl-4-yl)-1H-imidazol-2-yl]-4-oxo-1,2,4,5,6,7-hexahydro-azepino[3,2,1-hi]indol-5-yl}-carbamic acid methyl ester], the IC50 in experiment [1] was 31.2 nM; in experiment [2], 1210 pM.

The IC50 is the concentration at which inhibition is half-maximal.
